Source: the NIST ThermoML archive (doi:10.1021/je100148h)

Experiment: xn = mol fraction of the nth substance listed
Conditions: Fluid (supercritical or subcritical phases), Burnett expansion method

CCC [propane] + O=C=O
Conditions	mass density [kg/m3]
360.01 K, 5054 kPa, x2 = 0.8017	90.4354
360.01 K, 6218.2 kPa, x2 = 0.5158	141.203
360.02 K, 178.29 kPa, x2 = 0.8017	2.6378
360.02 K, 245.35 kPa, x2 = 0.8017	3.6378
360.02 K, 337.31 kPa, x2 = 0.8017	5.0167
360.02 K, 463.19 kPa, x2 = 0.8017	6.9183
360.02 K, 634.97 kPa, x2 = 0.8017	9.5406
360.02 K, 868.69 kPa, x2 = 0.8017	13.1566
360.02 K, 3863.5 kPa, x2 = 0.8017	65.5911
360.02 K, 6495 kPa, x2 = 0.8017	124.684
370 K, 1659.1 kPa, x2 = 0.8017	25.0073
370.01 K, 476.31 kPa, x2 = 0.8017	6.9151
370.01 K, 653.23 kPa, x2 = 0.8017	9.5361
370.01 K, 894.13 kPa, x2 = 0.8017	13.1504
370.01 K, 1220.3 kPa, x2 = 0.8017	18.1344
370.01 K, 2244.1 kPa, x2 = 0.8017	34.4826
370.01 K, 3013.9 kPa, x2 = 0.8017	47.5475
370.01 K, 5267 kPa, x2 = 0.8017	90.3909
370.02 K, 205.87 kPa, x2 = 0.5158	2.9726
370.02 K, 283.04 kPa, x2 = 0.5158	4.1011
370.02 K, 346.79 kPa, x2 = 0.8017	5.0143
370.02 K, 388.65 kPa, x2 = 0.5158	5.6577
370.02 K, 992.19 kPa, x2 = 0.5158	14.8545
370.02 K, 1345.8 kPa, x2 = 0.5158	20.4921
370.02 K, 1815.3 kPa, x2 = 0.5158	28.2684
370.02 K, 2426.9 kPa, x2 = 0.5158	38.9941
370.02 K, 3206 kPa, x2 = 0.5158	53.7882
370.02 K, 4009.4 kPa, x2 = 0.8017	65.5581
370.02 K, 4171 kPa, x2 = 0.5158	74.1924
370.02 K, 5317.2 kPa, x2 = 0.5158	102.331
370.02 K, 6617 kPa, x2 = 0.5158	141.135
370.02 K, 6810.4 kPa, x2 = 0.8017	124.62
370.03 K, 532.61 kPa, x2 = 0.5158	7.8051
370.03 K, 728.17 kPa, x2 = 0.5158	10.7675
380.02 K, 188.21 kPa, x2 = 0.8017	2.6354
380.02 K, 259.02 kPa, x2 = 0.8017	3.6346
380.02 K, 399.41 kPa, x2 = 0.5158	5.6555
380.02 K, 671.46 kPa, x2 = 0.8017	9.5319
380.02 K, 919.55 kPa, x2 = 0.8017	13.1448
380.02 K, 1255.9 kPa, x2 = 0.8017	18.1264
380.02 K, 1386.9 kPa, x2 = 0.5158	20.4838
380.02 K, 1709 kPa, x2 = 0.8017	24.9958
380.02 K, 1873.6 kPa, x2 = 0.5158	28.257
380.02 K, 3114.5 kPa, x2 = 0.8017	47.5261
380.02 K, 3326.5 kPa, x2 = 0.5158	53.7656
380.02 K, 4154.3 kPa, x2 = 0.8017	65.5297
380.02 K, 4347.6 kPa, x2 = 0.5158	74.1614
380.02 K, 5478.5 kPa, x2 = 0.8017	90.3475
380.02 K, 5579.3 kPa, x2 = 0.5158	102.287
380.02 K, 7122.7 kPa, x2 = 0.8017	124.564
380.03 K, 356.25 kPa, x2 = 0.8017	5.0122
380.03 K, 489.43 kPa, x2 = 0.8017	6.9121
380.03 K, 547.58 kPa, x2 = 0.5158	7.802
380.03 K, 749.01 kPa, x2 = 0.5158	10.7633
380.03 K, 1021.4 kPa, x2 = 0.5158	14.8485
380.03 K, 2314.7 kPa, x2 = 0.8017	34.4669
380.03 K, 2510.4 kPa, x2 = 0.5158	38.978
380.03 K, 7010.3 kPa, x2 = 0.5158	141.07
380.04 K, 211.45 kPa, x2 = 0.5158	2.9713
380.04 K, 290.81 kPa, x2 = 0.5158	4.0993
390.02 K, 2384.9 kPa, x2 = 0.8017	34.4507
390.02 K, 3446.3 kPa, x2 = 0.5158	53.7433
390.02 K, 5838.5 kPa, x2 = 0.5158	102.241
390.03 K, 193.15 kPa, x2 = 0.8017	2.6342
390.03 K, 217.06 kPa, x2 = 0.5158	2.9702
390.03 K, 265.87 kPa, x2 = 0.8017	3.6329
390.03 K, 365.64 kPa, x2 = 0.8017	5.0098
390.03 K, 410.13 kPa, x2 = 0.5158	5.6532
390.03 K, 502.51 kPa, x2 = 0.8017	6.9089
390.03 K, 689.66 kPa, x2 = 0.8017	9.5275
390.03 K, 769.82 kPa, x2 = 0.5158	10.759
390.03 K, 944.86 kPa, x2 = 0.8017	13.1385
390.03 K, 1050.5 kPa, x2 = 0.5158	14.8425
390.03 K, 1428 kPa, x2 = 0.5158	20.475
390.03 K, 1758.8 kPa, x2 = 0.8017	24.9833
390.03 K, 1931.7 kPa, x2 = 0.5158	28.245
390.03 K, 2593.4 kPa, x2 = 0.5158	38.9614
390.03 K, 3214.7 kPa, x2 = 0.8017	47.5025
390.03 K, 4298.5 kPa, x2 = 0.8017	65.4967
390.03 K, 4522.9 kPa, x2 = 0.5158	74.1282
390.03 K, 5688.3 kPa, x2 = 0.8017	90.3013
390.03 K, 7399 kPa, x2 = 0.5158	141.004
390.03 K, 7432.4 kPa, x2 = 0.8017	124.497
390.04 K, 298.57 kPa, x2 = 0.5158	4.0977
390.04 K, 562.52 kPa, x2 = 0.5158	7.7989
390.04 K, 1291.3 kPa, x2 = 0.8017	18.1174
400.02 K, 970.17 kPa, x2 = 0.8017	13.1371
400.03 K, 272.65 kPa, x2 = 0.8017	3.6324
400.03 K, 375.15 kPa, x2 = 0.8017	5.0093
400.03 K, 515.7 kPa, x2 = 0.8017	6.908
400.03 K, 577.33 kPa, x2 = 0.5158	7.7944
400.03 K, 707.92 kPa, x2 = 0.8017	9.5262
400.03 K, 790.53 kPa, x2 = 0.5158	10.7528
400.03 K, 1079.5 kPa, x2 = 0.5158	14.8335
400.03 K, 1326.5 kPa, x2 = 0.8017	18.1154
400.03 K, 1468.7 kPa, x2 = 0.5158	20.4633
400.03 K, 1808.4 kPa, x2 = 0.8017	24.9801
400.03 K, 2454.9 kPa, x2 = 0.8017	34.4454
400.03 K, 3565.3 kPa, x2 = 0.5158	53.7096
400.03 K, 6095.5 kPa, x2 = 0.5158	102.176
400.03 K, 7739.4 kPa, x2 = 0.8017	124.476
400.03 K, 7784.2 kPa, x2 = 0.5158	140.912
400.04 K, 198.07 kPa, x2 = 0.8017	2.6338
400.04 K, 222.65 kPa, x2 = 0.5158	2.9684
400.04 K, 306.29 kPa, x2 = 0.5158	4.0953
400.04 K, 420.82 kPa, x2 = 0.5158	5.6498
400.04 K, 1989.5 kPa, x2 = 0.5158	28.2277
400.04 K, 2676 kPa, x2 = 0.5158	38.9372
400.04 K, 3314.3 kPa, x2 = 0.8017	47.4952
400.04 K, 4441.8 kPa, x2 = 0.8017	65.4859
400.04 K, 4696.7 kPa, x2 = 0.5158	74.0811
400.04 K, 5896.6 kPa, x2 = 0.8017	90.2853
